Patent publication US7790725B2, “Thiazolidine derivatives and medicinal use thereof” (Mitsubishi Tanabe Pharma Corporation, priority 2001, dated 2010)
Where a name gives a salt, the structure may show the parent alone.

How the values were obtained:
Human plasma DPP-IV = target: T1, Human plasma DPP-IV (Homo sapiens, UniProt P27487); experiment: Plasma DPP-IV inhibitory activity, fluorescence assay with Gly-Pro-MCA (human plasma); format: biochemical; details: for IC50: human plasma (10-fold dilution), Gly-Pro-MCA substrate, room temperature, 60 min
T1 construct: Human plasma DPP-IV; from tissue; host or cells: human plasma
T1 sequence (P27487 39-766 limits assumed): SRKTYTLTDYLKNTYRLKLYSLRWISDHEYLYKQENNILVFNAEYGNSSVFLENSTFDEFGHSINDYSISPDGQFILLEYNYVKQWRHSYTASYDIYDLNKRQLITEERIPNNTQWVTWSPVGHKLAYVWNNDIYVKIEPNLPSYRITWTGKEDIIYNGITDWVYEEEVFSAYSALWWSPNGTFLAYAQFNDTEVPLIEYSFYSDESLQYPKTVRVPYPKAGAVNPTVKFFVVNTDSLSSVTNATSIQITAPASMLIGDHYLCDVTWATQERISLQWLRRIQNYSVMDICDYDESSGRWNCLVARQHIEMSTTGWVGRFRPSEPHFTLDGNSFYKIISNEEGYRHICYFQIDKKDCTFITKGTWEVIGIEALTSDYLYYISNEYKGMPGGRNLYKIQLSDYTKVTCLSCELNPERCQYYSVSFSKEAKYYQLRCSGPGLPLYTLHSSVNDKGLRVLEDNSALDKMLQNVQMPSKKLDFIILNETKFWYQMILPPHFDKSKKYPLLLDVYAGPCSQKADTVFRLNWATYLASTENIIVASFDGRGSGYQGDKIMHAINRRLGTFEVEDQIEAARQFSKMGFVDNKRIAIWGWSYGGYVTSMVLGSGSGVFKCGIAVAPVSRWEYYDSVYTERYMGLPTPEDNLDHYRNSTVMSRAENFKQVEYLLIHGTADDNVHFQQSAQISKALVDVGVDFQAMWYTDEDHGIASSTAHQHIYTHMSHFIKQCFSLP
Protocol: (§1) The plasma DPP-IV inhibitory activity of human and rat was measured according to the fluorescence assay method and under the conditions of Table 10. As a DPP-IV specific fluorescent substrate, Gly-Pro-MCA (Peptide Institute, Inc.) was used, and reaction solutions having the following compositions containing various concentrations of the test substance were incubated at room temperature for 60 min and the fluorescence intensity (Excitation 360 nm/Emission 465 nm) measured (SPECTRA FLUOR, Tecan Group, Ltd.) was taken as the DPP-IV activity.
(§2) The inhibitory ratio to a solvent addition group was calculated and IC50 value was determined by logistic analysis.

Rat plasma DPP-IV = target: T2, Rat plasma DPP-IV (Rattus norvegicus, UniProt P14740); experiment: Plasma DPP-IV inhibitory activity, fluorescence assay with Gly-Pro-MCA (rat plasma); format: biochemical; details: rat plasma (10-fold dilution), Gly-Pro-MCA substrate, room temperature, 60 min
T2 construct: Rat plasma DPP-IV; from tissue; host or cells: rat plasma
T2 sequence (P14740 38-767 limits assumed): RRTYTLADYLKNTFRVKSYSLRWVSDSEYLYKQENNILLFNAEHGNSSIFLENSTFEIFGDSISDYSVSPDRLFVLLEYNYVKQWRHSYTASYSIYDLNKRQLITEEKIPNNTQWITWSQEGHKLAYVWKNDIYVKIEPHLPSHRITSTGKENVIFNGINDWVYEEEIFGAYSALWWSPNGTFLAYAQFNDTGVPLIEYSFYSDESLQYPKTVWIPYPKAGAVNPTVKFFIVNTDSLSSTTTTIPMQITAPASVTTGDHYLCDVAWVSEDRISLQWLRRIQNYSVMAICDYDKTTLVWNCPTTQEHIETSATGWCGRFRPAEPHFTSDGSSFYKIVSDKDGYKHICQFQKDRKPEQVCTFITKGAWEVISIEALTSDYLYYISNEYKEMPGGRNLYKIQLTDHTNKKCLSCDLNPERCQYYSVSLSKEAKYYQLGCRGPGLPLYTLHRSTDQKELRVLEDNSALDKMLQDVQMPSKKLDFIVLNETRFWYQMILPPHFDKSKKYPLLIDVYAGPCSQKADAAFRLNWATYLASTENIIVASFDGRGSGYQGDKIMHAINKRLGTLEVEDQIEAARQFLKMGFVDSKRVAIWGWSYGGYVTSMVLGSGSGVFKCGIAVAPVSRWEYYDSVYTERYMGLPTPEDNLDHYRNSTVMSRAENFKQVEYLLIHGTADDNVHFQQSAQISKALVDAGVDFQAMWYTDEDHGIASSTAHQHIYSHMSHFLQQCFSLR
Protocol: as §1, §2

SMILES | IC50 (Human plasma DPP-IV) | IC50 (Rat plasma DPP-IV) | plasma DPP-IV inhibitory activity (assessment in words) (Human plasma DPP-IV; statement in the text on Experimental Example 1, species not distinguished)
NCCCC[C@H](N)C(=O)N1CCSC1.O=C(O)C(F)(F)F.O=C(O)C(F)(F)F [comparison compound 1, 3-L-lysyl-1,3-thiazolidine ditrifluoroacetate, reference compound] | 856 nM | 719 nM | sufficient
N#Cc1ccc(NCCCC[C@H](N)C(=O)N2CCSC2)nc1 [Example 6, 3-[(S)-2-amino-6-(5-cyanopyridin-2-ylamino)hexanoyl]-1,3-thiazolidine dihydrochloride] | 34 nM | 29 nM | –
N#Cc1ccc(NCCCC[C@H](N)C(=O)N2CCSC2)c([N+](=O)[O-])c1 [Example 5, 3-[(S)-2-amino-6-(4-cyano-2-nitrophenylamino)hexanoyl]-1,3-thiazolidine] | 28 nM | 19 nM | –
CS(=O)(=O)c1ccc(NCCCC[C@H](N)C(=O)N2CCSC2)cc1 [Example 7, 3-[(S)-2-amino-6-(4-methanesulfonylphenylamino)hexanoyl]-1,3-thiazolidine] | 15 nM | 13 nM | –
N#Cc1ccc(NCCCC[C@H](N)C(=O)N2CCSC2)cc1C(F)(F)F [Example 13, 3-{(S)-2-amino-6-[4-cyano-3-(trifluoromethyl)phenylamino]hexanoyl}-1,3-thiazolidine] | 66 nM | 40 nM | –

Continued, in another order:

IC50 (Human plasma DPP-IV) | IC50 (Rat plasma DPP-IV) | SMILES | plasma DPP-IV inhibitory activity (assessment in words) (Human plasma DPP-IV; statement in the text on Experimental Example 1, species not distinguished)
0.24 nM | 0.3 nM | COc1cc(OC)c2nc(C(F)(F)F)cc(N3CCN([C@@H]4CN[C@H](C(=O)N5CCSC5)C4)CC3)c2c1 [Example 55, 3-{(2S,4S)-4-[4-(2-trifluoromethyl-6,8-dimethoxy-4-quinolyl)-1-piperazinyl]-2-pyrrolidinylcarbonyl}-1,3-thiazolidine dihydrochloride] | –
0.91 nM | 1.17 nM | Cc1cc(C)n(C2CCN([C@@H]3CN[C@H](C(=O)N4CCSC4)C3)CC2)n1 [Example 56, 3-{(2S,4S)-4-[4-(3,5-dimethyl-1-pyrazolyl)piperidino]-2-pyrrolidinylcarbonyl}-1,3-thiazolidine trihydrochloride] | –
29 nM | 18 nM | N[C@@H](CCCCNc1ccc([N+](=O)[O-])cn1)C(=O)N1CCSC1 [Example 14, 3-[(S)-2-amino-6-(5-nitropyridin-2-ylamino)hexanoyl]-1,3-thiazolidine] | –
0.25 nM | 0.37 nM | O=C([C@@H]1C[C@H](N2CCN(c3cc(C(F)(F)F)nc4ccc(O)cc34)CC2)CN1)N1CCSC1 [Example 48, 3-{(2S,4S)-4-[4-(2-trifluoromethyl-6-hydroxy-4-quinolyl)-1-piperazinyl]-2-pyrrolidinylcarbonyl}-1,3-thiazolidine dihydrochloride] | –
35 nM | 49 nM | N[C@@H](CCCCN1CCN(c2cc(C(F)(F)F)nc3ccccc23)CC1)C(=O)N1CCSC1 [Example 28, 3-{(S)-2-amino-6-[4-(2-trifluoromethyl-4-quinolyl)piperazin-1-yl]hexanoyl}-1,3-thiazolidine dihydrochloride] | –
